Assay [1] deals with T1, human dopamine D2L receptors (long isoform) (Homo sapiens, UniProt P14416).
T1 construct: expressed in transfected cells
The assay can be described thus: Dopamine D2L receptor binding, displacement of [125I] iodospiperone. The settings on record: membranes of HEK-293 cells stably expressing human D2L; 0.01 nM [125I] iodospiperone; 25° C., 60 minutes; read-out: Ki(D2)*. The gist of the method: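 Displacement of [125I]iodospiperone from human D2L receptors, triplicates, in 50 mM Tris pH 7.4 with 120 mM NaCl, 5 mM KCl, 2 mM CaCl2, 2 mM MgCl2, 0.1% BSA. Incubated 60 min at 25 °C, then filtered and counted by scintillation. Ki came from iterative nonlinear regression of inhibition curves.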

The target in assay [2] is T2, human dopamine D3 receptors (Homo sapiens, UniProt P35462).
T2 construct: expressed in transfected cells
In words: Dopamine D3 receptor binding, displacement of [125I]-iodosulpride. As to conditions: for Ki: membranes of HEK-293 cells stably expressing human D3, 0.1 nM [125I]-iodosulpride, 25° C., 60 minutes; for Ki(D2)*/Ki(D3)*: selectivity ratio of the receptor binding constants D2 over D3. The method in brief: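 Displacement of [125I]-iodosulpride at human D3 receptors in pH 7.4 Tris buffer with NaCl, KCl, CaCl2, MgCl2, 0.1% BSA, 10 μM quinolone and 0.1% ascorbic acid, 60 min at 25 °C, in triplicate. Bound label collected by filtration and counted; Ki from nonlinear regression of inhibition curves.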
In general terms: Displacement assays read how much labelled ligand stays bound in the presence of the test substance.

T1 sequence (P14416 whole entry, canonical isoform): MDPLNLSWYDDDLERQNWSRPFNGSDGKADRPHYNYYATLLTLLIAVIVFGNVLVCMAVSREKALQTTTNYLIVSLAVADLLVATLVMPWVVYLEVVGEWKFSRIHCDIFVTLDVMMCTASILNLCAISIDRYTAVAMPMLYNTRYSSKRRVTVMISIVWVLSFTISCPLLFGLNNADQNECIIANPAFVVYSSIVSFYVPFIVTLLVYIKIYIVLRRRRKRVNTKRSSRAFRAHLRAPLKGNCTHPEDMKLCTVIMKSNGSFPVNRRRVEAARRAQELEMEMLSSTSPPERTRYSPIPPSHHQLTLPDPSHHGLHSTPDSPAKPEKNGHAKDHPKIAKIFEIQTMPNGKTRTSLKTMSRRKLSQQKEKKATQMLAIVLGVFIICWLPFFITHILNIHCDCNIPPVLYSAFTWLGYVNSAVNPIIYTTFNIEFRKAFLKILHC
T2 sequence (P35462 whole entry): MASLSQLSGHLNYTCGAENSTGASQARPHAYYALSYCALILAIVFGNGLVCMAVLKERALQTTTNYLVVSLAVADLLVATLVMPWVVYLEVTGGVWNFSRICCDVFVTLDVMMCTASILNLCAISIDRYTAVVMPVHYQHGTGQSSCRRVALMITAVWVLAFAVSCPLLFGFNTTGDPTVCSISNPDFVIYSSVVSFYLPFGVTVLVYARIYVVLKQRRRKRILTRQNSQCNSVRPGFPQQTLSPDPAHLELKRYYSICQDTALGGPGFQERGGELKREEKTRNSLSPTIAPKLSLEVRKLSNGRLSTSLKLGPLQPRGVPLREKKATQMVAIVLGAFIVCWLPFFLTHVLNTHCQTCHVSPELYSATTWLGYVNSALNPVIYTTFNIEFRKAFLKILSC

As a reminder, the Ki is the equilibrium dissociation constant of an inhibitor or competing ligand from its target. Consider `C=CCN1CC[C@@H](c2ccc(NS(=O)(=O)c3ccc(CCCF)cc3)cc2)C1` [Example 107, N-[4-((S)-1-Allyl-pyrrolidin-3-yl)-phenyl]-4-(3-fluoro-propyl)-benzene sulfonamide], for which the Ki is 45.8 nM in assay [1] and 0.42 nM in assay [2]. In addition, in assay [2], the “Ki(D2)*/Ki(D3)*” value was 108.
For `O=S(=O)(Nc1ccc([C@@H]2CCNC2)cc1)c1ccc(CCCF)cc1` [Example 108, 4-(3-Fluoro-propyl)-N—((S)-4-pyrrolidin-3-yl-phenyl)-benzenesulfonamide] the same measures were 204 nM, 11.2 nM and 18.
The corresponding values for `C[C@H](CF)c1ccc(S(=O)(=O)Nc2ccc([C@@H]3CCNC3)cc2)cc1` [Example 109, 4-((S)-2-Fluoro-1-methyl-ethyl)-N—((S)-4-pyrrolidin-3-yl-Phenyl)-benzenesulfonamide] are 258 nM, 7.4 nM and 35.
The corresponding values for `C[C@@H](CF)c1ccc(S(=O)(=O)Nc2ccc([C@@H]3CCNC3)cc2)cc1` [Example 110, 4-((R)-2-Fluoro-1-methyl-ethyl)-N—((S)-4-pyrrolidin-3-yl-phenyl)-benzenesulfonamide] are 895 nM, 6.6 nM and 135.
With `CN1CC[C@@H](c2ccc(NS(=O)(=O)c3ccc(OC(F)(F)F)cc3)cc2)C1` [Example 111, N-[4-((S)-1-Methyl-pyrrolidin-3-yl)-phenyl]-4-trifluoromethoxy-benzenesulfonamide], the figures for the Ki in assay [1] and in assay [2] were 723 nM and 16.4 nM, respectively. Further, the “Ki(D2)*/Ki(D3)*” value in assay [2] came out at 44.
For `C=CCN1CC[C@H](c2ccc(NS(=O)(=O)c3ccc(C(C)C(F)(F)F)cc3)cc2)C1` (stereo partly drawn) [Example 112, N-[4-((R)-1-Allyl-pyrrolidin-3-yl)-phenyl]-4-(2,2,2-trifluoro-1-methyl-ethyl)benzenesulfonamide] the same measures were 1200 nM, 10.3 nM and 116.
The corresponding values for `C=CCN1CC[C@@H](c2ccc(NS(=O)(=O)c3ccc([C@@H](C)CF)cc3)cc2)C1` [Example 113, N-[4-((S)-1-Allyl-pyrrolidin-3-yl)-phenyl]-4-((R)-2-fluoro-1-methyl-ethyl)benzenesulfonamide] are 42.2 nM, 0.49 nM and 86.
For `O=S(=O)(Nc1ccc([C@@H]2CCN(CCCF)C2)cc1)c1ccc(OC(F)(F)F)cc1` [Example 114, N-{4-[(S)-1-(3-Fluoro-propyl)-pyrrolidin-3-yl]-phenyl}-4-trifluoromethoxy-benzenesulfonamide] the same measures were 464 nM, 4.2 nM and 111.
Regarding `CCCN1CC[C@@H](c2ccc(NS(=O)(=O)c3ccc(-c4cnn(C)c4)cc3)cc2)C1` [Example 118, 4-(1-Methyl-1H-pyrazol-4-yl)-N-[4-((S)-1-propyl-pyrrolidin-3-yl)-phenyl]-benzenesulfonamide], the inhibition constant Ki in assay [1] worked out at 1170 nM; in assay [2], 36.6 nM. Moreover, the “Ki(D2)*/Ki(D3)*” value in assay [2] turned out to be 32.
The corresponding values for `CCCN1CC[C@@H](c2ccc(NS(=O)(=O)c3ccc(N4CCOCC4)cc3)cc2)C1.Cl` [Example 120, 4-Morpholin-4-yl-N-[4-((S)-1-propyl-pyrrolidin-3-yl)-phenyl]-benzenesulfonamide hydrochloride] are 174 nM, 2 nM and 86.
For `CCCN1CC[C@@H](c2ccc(NS(=O)(=O)c3ccc(OCc4ccccc4)cc3)cc2)C1` [Example 121, 4-Benzyloxy-N-[4-((S)-1-propyl-pyrrolidin-3-yl)-phenyl]-benzenesulfonamide] the same measures were 163 nM, 3.7 nM and 44.
The corresponding values for `CCCN1CC[C@@H](c2ccc(NS(=O)(=O)c3ccc(O)cc3)cc2)C1` [Example 122, 4-Hydroxy-N-[4-((S)-1-propyl-pyrrolidin-3-yl)-phenyl]-benzenesulfonamide] are 1340 nM, 43.9 nM and 31.
In the case of `C=Cc1ccc(S(=O)(=O)Nc2ccc([C@@H]3CCN(CCC)C3)cc2)cc1` [Example 123, N-[4-((S)-1-Propyl-pyrrolidin-3-yl)-phenyl]-4-vinyl-benzenesulfonamide], the Ki in assay [1] was found to be 41 nM. Moreover, in assay [2], the inhibitory constant (Ki) is 0.45 nM and the “Ki(D2)*/Ki(D3)*” value amounted to 91.
For `CCCN1CC[C@@H](c2ccc(NS(=O)(=O)c3ccc(F)cc3)cc2)C1.Cl` [Example 125, 4-Fluoro-N-[4-((S)-1-propyl-pyrrolidin-3-yl)-phenyl]-benzenesulfonamide hydrochloride] the same measures were 1300 nM, 19.5 nM and 67.
As to `CCCN1CC[C@@H](c2ccc(NS(=O)(=O)c3ccc(F)c(F)c3)cc2)C1.Cl` [Example 126, 3,4-Difluoro-N-[4-((S)-1-propyl-pyrrolidin-3-yl)-phenyl]-benzenesulfonamide hydrochloride], in assay [1], the Ki came to 1020 nM. In assay [2], the affinity, expressed as Ki, was 34 nM and the “Ki(D2)*/Ki(D3)*” value is 30.
For `CCCN1CC[C@@H](c2ccc(NS(=O)(=O)c3ccc(N4CCC(F)(F)C4)cc3)cc2)C1` [Example 127, 4-(3,3-Difluoro-pyrrolidin-1-yl)-N-[4-((S)-1-propyl-pyrrolidin-3-yl)-phenyl]-benzenesulfonamide] the same measures were 64.7 nM, 0.6 nM and 112.
On to `CC(C)c1ccc(S(=O)(=O)Nc2ccc(C3CCN(Cc4ccccc4)C3)c(F)c2)cc1` (stereo not drawn) [Example 128, N-[4-(1-Benzyl-pyrrolidin-3-yl)-3-fluoro-phenyl]-4-isopropyl-benzenesulfonamide], for which, in assay [1], the Ki was found to be 12.9 nM. In assay [2], the Ki amounted to 2.7 nM and the “Ki(D2)*/Ki(D3)*” value turned out to be 5.
For `CC(C)c1ccc(S(=O)(=O)Nc2ccc(C3CCNC3)c(F)c2)cc1` (stereo not drawn) [Example 129, N-(3-Fluoro-4-pyrrolidin-3-yl-phenyl)-4-isopropyl-benzenesulfonamide] the same measures were 106 nM, 3.6 nM and 30.
For the compound `CCCN1CCC(c2ccc(NS(=O)(=O)c3ccc(C(C)C)cc3)cc2F)C1.Cl` (stereo not drawn) [Example 130, N-[3-Fluoro-4-(1-propyl-pyrrolidin-3-yl)-phenyl]-4-isopropyl-benzenesulfonamide, hydrochloride], in assay [1], the Ki was 8.5 nM. In assay [2], the inhibition constant (Ki) was 0.52 nM and the “Ki(D2)*/Ki(D3)*” value was 16.
The corresponding values for `CCCN1CCC[C@@H](c2ccc(NS(=O)(=O)c3ccc(OC(F)(F)F)cc3)cc2)C1` [Example 133, N-[4-((S)-1-Propyl-piperidin-3-yl)-phenyl]-4-trifluoromethoxy-benzenesulfonamide] are 193 nM, 7.3 nM and 26.
“N-[4-((S)-1-Propyl-pyrrolidin-3-yl)-phenyl]-4-pyrrol-1-yl-benzenesulfonamide [Example 74]”: in assay [1], the Ki came to 10.5 nM. In addition, in assay [2], the affinity, expressed as Ki, was 0.69 nM and the “Ki(D2)*/Ki(D3)*” value was found to be 15.
